According to patent publication US20200179487A1, “METHODS OF DIAGNOSIS AND TREATMENT OF PRE-ECLAMPSIA” (AGENCY FOR SCIENCE, TECHNOLOGY AND RESEARCH, priority 2016, published 2020):

Test system: APJ-expressing primary allantoic cultures
Assay: Allantoic explants treated with ligands, digital droplet PCR of gene expression
Assay type: cell-based, mouse
Details: 2.5 μM, 12 hours, ddPCR, ELA versus APLN
Description: Allantoic explants were microdissected from 4-5 somite stage embryos on the morning of the 8th day of conception in dissection medium (DMEM+Hepes+7.5% FCS), and cultured in DMEM+NaHCO3+50% rat serum, on poly-L-lysine coated microwells (Ibidi). […] 12 hours later, the explants were harvested by direct lysis and RNA extracted with the Nucleospin RNA XS kit (Machery Nagel). cDNA was made using the SMARTer® Pico PCR cDNA Synthesis Kit (Clontech) and gene quantitation was performed using digital droplet PCR (Biorad) with EvaGreen and PrimeTime probes listed below: […]

## APLN: APLN-36 (Sigma); Apelin, the alternate ligand for APJ (LVQPRGSRNGPGPWQGGRRKFRRQRPRLSHKGPMPF; Apelin-36; UniProt Q9ULZ1 42-77, looked up)
Foxoa3 and Hif3α
  expression of hypoxic response genes: opposite effects
  expression of Esm1: opposite effects
